pIC50: −log10 of the molar value. “And” between values parts separate entries of the source, which are not always exact repeats. Equal values may be shown once. Starred links: 1 amine or outer side, 2 acyl side, 3 side chain; linkers in the order of their positions; H or OH if unused. Positions of bridges follow the written chain, without caps; N, C: chain ends. Non-standard residues stand in square brackets, D forms with d. Residues, ends and D or L forms follow the SMILES beside them. *: point of attachment. pNA = O=[N+]([O-])c1ccc(N*)cc1; Nle = CCCC[CH](N)C(=O)O; CO = O=C([*:1])[*:2]
Assays:
[1] = target: Somatostatin receptor type 3 (Homo sapiens, UniProt P32745)
Somatostatin receptor type 3, sequence (P32745 whole entry): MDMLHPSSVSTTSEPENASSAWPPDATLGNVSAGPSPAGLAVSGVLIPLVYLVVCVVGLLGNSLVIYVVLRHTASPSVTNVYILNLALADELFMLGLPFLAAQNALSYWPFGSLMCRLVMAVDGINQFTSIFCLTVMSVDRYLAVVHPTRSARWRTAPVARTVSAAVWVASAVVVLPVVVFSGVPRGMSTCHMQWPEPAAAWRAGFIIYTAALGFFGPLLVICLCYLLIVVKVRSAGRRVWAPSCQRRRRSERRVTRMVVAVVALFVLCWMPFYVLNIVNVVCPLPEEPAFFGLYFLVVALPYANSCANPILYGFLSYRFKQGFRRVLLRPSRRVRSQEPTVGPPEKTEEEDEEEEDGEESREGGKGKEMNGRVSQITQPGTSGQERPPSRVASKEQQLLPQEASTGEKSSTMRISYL

[2] = target: Somatostatin receptor type 4 (Homo sapiens, UniProt P31391); conditions: IC50 (nM)
Somatostatin receptor type 4, sequence (P31391 whole entry): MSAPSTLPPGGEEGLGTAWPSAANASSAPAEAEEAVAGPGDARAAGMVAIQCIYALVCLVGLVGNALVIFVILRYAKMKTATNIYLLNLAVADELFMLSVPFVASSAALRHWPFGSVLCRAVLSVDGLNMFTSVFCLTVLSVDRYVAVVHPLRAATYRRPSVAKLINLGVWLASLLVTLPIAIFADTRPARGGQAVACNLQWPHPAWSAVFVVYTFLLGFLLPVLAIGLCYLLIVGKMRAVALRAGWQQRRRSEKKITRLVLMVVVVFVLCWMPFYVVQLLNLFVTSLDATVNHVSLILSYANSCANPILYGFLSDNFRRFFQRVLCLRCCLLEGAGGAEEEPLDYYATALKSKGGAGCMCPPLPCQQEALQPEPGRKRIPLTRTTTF

[3] = target: Somatostatin receptor type 5 (Homo sapiens, UniProt P35346)
Somatostatin receptor type 5, sequence (P35346 whole entry): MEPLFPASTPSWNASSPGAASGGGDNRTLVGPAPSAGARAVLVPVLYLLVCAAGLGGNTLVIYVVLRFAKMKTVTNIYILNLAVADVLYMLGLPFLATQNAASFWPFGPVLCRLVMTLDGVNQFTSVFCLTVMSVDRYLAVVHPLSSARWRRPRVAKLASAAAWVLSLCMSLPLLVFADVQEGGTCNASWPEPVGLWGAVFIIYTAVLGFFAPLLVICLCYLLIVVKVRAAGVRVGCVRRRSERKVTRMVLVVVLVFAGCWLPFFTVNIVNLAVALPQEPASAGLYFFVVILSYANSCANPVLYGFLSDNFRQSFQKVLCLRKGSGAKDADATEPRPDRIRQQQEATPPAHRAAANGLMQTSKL

Compound `CCCCC(NC(=O)NC(Cc1ccccc1)C(=O)Nc1ccc([N+](=O)[O-])cc1)C(=O)NC(CCCCN)C(=O)OC` (stereo unspecified) [CAS_5311373] ({pNA-Phe-CO}-[Nle]-Lys-OMe; configuration not given here) has a pIC50 [1] of 6.90, an IC50 [2] of over 10000 nM and a pIC50 [3] of under 5.00.

`C[C@@H](O)[C@@H]1NC(=O)[C@H](CCCCN)NC(=O)[C@@H](N(C)C(=O)c2ccc3ccccc3c2)NC(=O)[C@H](Cc2ccc(O)cc2)NC(=O)[C@H](Cc2ccccc2)NC(=O)[C@H](NC(N)=O)CSSC[C@@H](C(=O)O)NC(=O)[C@H](Cc2ccccc2)NC1=O` [Carbamoyl-des-AA 1,2,4,5,12,13[D-Cys3,Tyr7, D-Agl8(Me,2-naphthoyl)]-SS(sst3-ODN-8)] showed a pIC50 [1] of 8.17, an IC50 [2] of over 10000 nM and a pIC50 [3] of under 5.00.

With `CSCC[C@H](NC(=O)[C@H](CCCN=C(N)N)NC(=O)[C@@H](N)CC(=O)O)C(=O)N1CCC[C@H]1C(=O)N[C@H]1CSSC[C@@H](C(=O)N[C@@H](CCCCN)C(=O)O)NC(=O)[C@H](CO)NC(=O)[C@H](CO)NC(=O)[C@H](Cc2ccccc2)NC(=O)[C@H]([C@@H](C)O)NC(=O)[C@H](CCCCN)NC(=O)[C@H](Cc2c[nH]c3ccccc23)NC(=O)[C@H](Cc2ccccc2)NC(=O)[C@H](Cc2ccccc2)NC(=O)[C@H](CC(N)=O)NC(=O)[C@H](CCCN=C(N)N)NC1=O` [Cortistatin] the pIC50 [1] was 8.17, the IC50 [2] was 2.5 nM and the pIC50 [3] was 7.89.

For `C[C@@H](O)[C@@H]1NC(=O)[C@H](CCCCN)NC(=O)[C@@H](Cc2c[nH]c3ccccc23)NC(=O)[C@H](Cc2ccccc2)NC(=O)[C@H](Cc2ccccc2)NC(=O)[C@@H](N)CSSC[C@@H](C(=O)O)NC(=O)[C@H](Cc2ccccc2)NC1=O` [H-c(Cys3-Phe6-Phe7-DTrp8-Lys9-Thr10-Phe11-Cys14)-OH] (H-CFF[dW]KTFC-OH; disulfide 1-8), the pIC50 [1] was 7.89, the IC50 [2] was 1.3 nM and the pIC50 [3] was 7.35.

For `C[C@@H](O)[C@@H]1NC(=O)[C@H](CCCCN)NC(=O)[C@@H](NC(=O)c2ccc3ccccc3c2)NC(=O)[C@H](Cc2ccccc2)NC(=O)[C@H](Cc2ccccc2)NC(=O)[C@@H](N)CSSC[C@@H](C(=O)O)NC(=O)[C@H](Cc2ccccc2)NC1=O` [des-AA 1,2,4,5,12,13[D-2Nal8]-SS (ODN-8)], the IC50 [2] was 165 nM.

With `C[C@@H](O)[C@@H]1NC(=O)[C@H](CCCCN)NC(=O)[C@@H](N(C)C(=O)c2ccc3ccccc3c2)NC(=O)[C@H](Cc2ccccc2)NC(=O)[C@H](Cc2ccccc2)NC(=O)[C@H](N)CSSC[C@@H](C(=O)O)NC(=O)[C@H](Cc2ccccc2)NC1=O` [des-AA 1,2,4,5,12,13[D-Cys3, D-Agl8(Me,2-naphthoyl)]-SS] the pIC50 [1] was 6.94 and the IC50 [2] was over 10000 nM.

`C[C@@H](O)[C@@H]1NC(=O)[C@H](CCCCN)NC(=O)[C@@H](N(C)C(=O)c2ccc3ccccc3c2)NC(=O)[C@H](Cc2ccc(O)cc2)NC(=O)[C@H](Cc2ccccc2)NC(=O)[C@H](N)CSSC[C@@H](C(=O)O)NC(=O)[C@H](Cc2ccccc2)NC1=O` [des-AA 1,2,4,5,12,13[D-Cys3,Tyr7, D-Agl8(Me,2-naphthoyl)]-SS] was tested, and the pIC50 [1] was 7.41, the IC50 [2] was > 10000 nM and 1000 nM and the pIC50 [3] was under 5.00.

In the case of `C[C@@H](O)[C@@H]1NC(=O)[C@H](CCCCN)NC(=O)[C@@H](N(C)C(=O)c2ccc3ccccc3c2)NC(=O)[C@H](Cc2ccccc2)NC(=O)[C@H](Cc2ccccc2)NC(=O)[C@@H](N)CSSC[C@@H](C(=O)O)NC(=O)[C@H](Cc2ccccc2)NC1=O` [des-AA 1,2,4,5,12,13[DAgl8(Me,2-naphthoyl)]-SS], the pIC50 [1] was 7.15, the IC50 [2] was over 10000 nM and the pIC50 [3] was under 5.00.

Reference: BindingDB's records for doi:10.1073/pnas.250483897 (University of Berne, 2000)
